# Source: US8980846B2, “Composition containing styraxlignolide A or the aglycone thereof as an active ingredient for preventing or treating asthma” (Korea Research Institute of Bioscience and Biotechnology, priority 2010, dated 2015)
# How the values were obtained:
# Type in all cases: in vivo, Balb/c female mice
# TGF-β1 = TGF-β1 in bronchoalveolar lavage fluid; conditions: asthma-induced mice, homoegonol study
# Protocol: (§1) To prepare bronchial asthma-induced experimental animals, six-week-old Balb/c female mice of mean weight about 20 g were used. After one week of adaptation, individuals which had no observed abnormality on a basic physical examination were targeted. 200 μL of phosphate buffered saline (PBS)(pH 7.4) in which 2 mg of aluminum hydroxide (A8222, Sigma, St. Louis, Mo.) and 20 μg of ovalbumin (A5503, Sigma, St. Louis, Mo.) were suspended was injected into the peritoneal cavity at two-week intervals to result in sensitization. On days 28 to 30 after the first intraperitoneal administration of ovalbumin, inhalation challenge was performed for 30 min with 1% ovalbumin using an ultrasonic atomizer. 24 hours after the last antigen administration, airway hyperresponsiveness was measured. After 24 hours, a lethal dose of pentobarbital (Entobar®, Hanlim Pharm Co., Ltd.) was administered, body weight measurement and bronchotomy were performed, and bronchoalveolar lavage was performed with a total 1.2 mL of physiological saline, and then, samples were collected. […] Eight white mice were used for each group. Experimental groups for homoegonol were a group (hE7.5) in which animals were orally administered with 7.5 mg/kg homoegonol 1 hour prior to ovalbumin inhalation, a group (hE15) in which animals were orally administered with 15 mg/kg homoegonol 1 hour prior to ovalbumin inhalation, and a group (hE30) in which animals were orally administered with 30 mg/kg homoegonol 1 hour prior to ovalbumin inhalation, and five white mice were used for each group.
# To examine the effect of homoegonol on airway remodeling, generation of TGF-β1 and IL-17 in bronchoalveolar lavage fluid was measured.
# [1] = tested on: fibrosis in subsegmental bronchi; assay: Fibrosis in subsegmental bronchi (Masson's trichrome staining); conditions: asthma-induced mice, homoegonol study; 30 mg/kg PO
# Protocol: as §1
# [2] = Body weight in asthma-induced mice; conditions: homoegonol study
# Protocol: as §1
# (§2) To determine an effect of styraxlignolide A on reduction in body weight in asthma-induced mice, body weight of each mouse prepared in Example 2 was measured. For statistical analyses for all measurements, means and standard errors (mean±S.E.) according to a number of variables were calculated, and comparison between each group was analyzed by performing a Mann-whitney U test using SPSS 10.0. Statically significance was accepted at p<0.05.
# as §2, with “homoegonol” for “styraxlignolide A”
# [3] = tested on: airway hyperresponsiveness; assay: Airway hyperresponsiveness, Penh by one chamber plethysmography after methacholine inhalation; conditions: asthma-induced mice, homoegonol study
# Protocol: as §1, with “Experimental groups for homoegonol were a group (hE7.5) in which animals were orally administered with 7.5 mg/kg homoegonol 1 hour prior to ovalbumin inhalation, a group (hE15) in which animals were orally administered with 15 mg/kg homoegonol 1 hour prior to ovalbumin inhalation, and a group (hE30) in which animals were orally administered with 30 mg/kg homoegonol 1 hour prior to ovalbumin inhalation, and five white mice were used for each group.” left out
# The effect of styraxlignolide A on airway hyperresponsiveness caused by asthma occurrence was examined by measuring airway resistance with one chamber plethysmography (All medicus, Seoul, Republic of Korea) and degree of airway resistance was assessed by measuring Penh (enhanced pause) values. The baseline value was measured under a normal respiratory condition, and then, PBS was inhaled using an ultrasonic atomizer for 3 min, and Penh values were measured over 3 min. […] Louis, Mo.) which is used in general methods for diagnosis of bronchial asthma were inhaled and Penh values were measured. Penh value is shown in the following Equation 1, and the resulting Penh value was expressed as a percent increase in Penh after inhalation of each concentration of methacholine. The baseline Penh (saline challenge) was expressed as 100%.
# Te: expiratory time (sec), the time from inspiration to the next inspiration
# RT: relaxation time, the elapsed time between the beginning of the expiration and the moment when the remaining 30% of the tidal volume has been reached during expiration
# PEF: Peak expiration flow
# PIF: Peak inspiration flow
# To examine the effect of homoegonol on airway hyperresponsiveness caused by asthma occurrence, Penh value was measured according to the method in <Experimental Example 2>.
# [4] = tested on: inflammatory cells in bronchoalveolar lavage fluid; assay: Inflammatory cell counts in bronchoalveolar lavage fluid (Diff-Quick staining); conditions: asthma-induced mice, homoegonol study, bronchoalveolar lavage fluid
# Protocol: as §1
# Bronchoalveolar lavage fluid was collected from individuals of each experimental group in <Example 2> and right after the collection, fluid was stained with trypan blue. The number of total cells except dead cells was calculated using a hemocytometer. Then, Diff-Quick staining (Sysmex, Swizerland) was performed after smear preparation with Cytospin II, and eosinophils and other inflammatory cells were differentially counted.
# To examine the effect of homoegonol on asthma, variation in the numbers of asthma-related inflammatory cells was measured according to the method in <Experimental Example 3>.
smiles,measurement,setting,value
COc1ccc(-c2cc3cc(CCCO)cc(OC)c3o2)cc1OC [homoegonol],TGF-β1 concentrations in bronchoalveolar lavage fluid,TGF-β1; 7.5 mg/kg PO,216.1875 ± 13.5904 pg/mL
same,TGF-β1 concentrations in bronchoalveolar lavage fluid,TGF-β1; 15 mg/kg PO,190.4375 ± 13.0702 pg/mL
same,TGF-β1 concentrations in bronchoalveolar lavage fluid,TGF-β1; 30 mg/kg PO,186.8125 ± 6.4551 pg/mL
same,area of a fibrosis stained region per 100 μm of a basement membrane perimeter,[1],320.99 ± 46.2236 μm^2/100 μm of basement membrane
same,body weight,[2]; 7.5 mg/kg PO 1 hour prior to ovalbumin inhalation,22.10 ± 0.13 g
same,body weight,[2]; 15 mg/kg PO 1 hour prior to ovalbumin inhalation,21.23 ± 0.43 g
same,body weight,[2]; 30 mg/kg PO 1 hour prior to ovalbumin inhalation,21.98 ± 0.47 g
same,Penh values,"[3]; 7.5 mg/kg PO, methacholine 0 mg/ml",0.6003 ± 0.0500
same,Penh values,"[3]; 7.5 mg/kg PO, methacholine 12.5 mg/ml",1.1399 ± 0.1279
same,Penh values,"[3]; 7.5 mg/kg PO, methacholine 25 mg/ml",1.4067 ± 0.1279
same,Penh values,"[3]; 7.5 mg/kg PO, methacholine 50 mg/ml",1.4317 ± 0.2094
same,Penh values,"[3]; 15 mg/kg PO, methacholine 0 mg/ml",0.4538 ± 0.0376
same,Penh values,"[3]; 15 mg/kg PO, methacholine 12.5 mg/ml",0.7989 ± 0.0736
same,Penh values,"[3]; 15 mg/kg PO, methacholine 25 mg/ml",1.0243 ± 0.1881
same,Penh values,"[3]; 15 mg/kg PO, methacholine 50 mg/ml",1.0918 ± 0.1914
same,Penh values,"[3]; 30 mg/kg PO, methacholine 0 mg/ml",0.4736 ± 0.0420
same,Penh values,"[3]; 30 mg/kg PO, methacholine 12.5 mg/ml",0.6516 ± 0.0914
same,Penh values,"[3]; 30 mg/kg PO, methacholine 25 mg/ml",0.9515 ± 0.1268
same,Penh values,"[3]; 30 mg/kg PO, methacholine 50 mg/ml",1.0576 ± 0.1582
same,"Number of cells, Other inflammatory cells",[4]; 7.5 mg/kg PO,33.40 ± 2.3467 ×10^3 cells/mouse
same,"Number of cells, Eosinophils","[4]; 7.5 mg/kg PO, 7.5 mg/kg",12.80±2.50 ×10^3 cells/mouse
same,"Number of cells, Total inflammatory cells","[4]; 7.5 mg/kg PO, 7.5 mg/kg",42.80±7.2060 ×10^3 cells/mouse
same,"Number of cells, Other inflammatory cells",[4]; 15 mg/kg PO,30.00 ± 2.8267 ×10^3 cells/mouse
same,"Number of cells, Eosinophils","[4]; 15 mg/kg PO, 15 mg/kg",6.32±0.86 ×10^3 cells/mouse
same,"Number of cells, Total inflammatory cells","[4]; 15 mg/kg PO, 15 mg/kg",39.72±4.4400 ×10^3 cells/mouse
same,"Number of cells, Other inflammatory cells",[4]; 30 mg/kg PO,28.4 ± 3.1739 ×10^3 cells/mouse
same,"Number of cells, Eosinophils","[4]; 30 mg/kg PO, 30 mg/kg",5.48±2.02 ×10^3 cells/mouse
same,"Number of cells, Total inflammatory cells","[4]; 30 mg/kg PO, 30 mg/kg",33.88±8.1589 ×10^3 cells/mouse
